In one test the test system is SKMEL-28 tumors. Put plainly: SKMEL-28 melanoma xenograft. The class given is in vivo, mice. The settings on record: human SKMEL-28; i.p. 20 mg/kg/day. As for the experimental part:
(§1) Exponentially growing cells were harvested, washed twice in PBS then resuspended in PBS. SKMEL-28, shSKMEL-28 clones (5 × 10^6 cells) and B16F10 (3 × 10^5) cells were injected subcutaneously (s.c.) into the flank of nude mice. HL60, KG1 and shKG1-clones (5 × 10^6) were inoculated s.c. into the flanks of NOD/SCID mice. When tumors were palpable, animals (n = 10–20 mice per group, as indicated) were randomized to receive either DDA (20 mg/kg) intraperitoneally (i.p.) or 40 mg/kg by oral gavage (p.o), once a day, or vehicle solvent for the indicated time. Animals were examined daily and body weights were measured twice a week. In all experiments, tumor volume was determined by direct measurement with a caliper and was calculated using the formula (width^2 × length)/2. At the end of experiments, mice were sacrificed and tumors were excised and divided for intra-tumoral DDA quantification, immunoblotting, or immunohistochemistry analyses.
Background: In xenograft studies the graft and the host belong to different species.

The next test concerns B16F10 tumors. Put plainly: B16F10 melanoma tumors in mice. The class given is in vivo. As to conditions: mouse B16F10; i.p. 20 mg/kg/day. Here is the method: as §1
Test [1] concerns the target T1, 3β-hydroxysterol-Δ8,7-isomerase (D8D7I) (Homo sapiens, UniProt Q15125).
T1 construct: endogenous in cells; host or cells: B16F10 (murine) and SKMEL-28 (human) melanoma cells
Description: D8D7I inhibition shown by Δ8-sterol accumulation in melanoma cells. Type of test: cell-based. The settings on record: B16F10 and SKMEL-28, 2.5 µM DDA, 48 h; accumulation of zymostenol and 8-dehydrocholesterol. As for the experimental part:
Sterols in cell homogenates were extracted with a solvent mixture containing chloroform/methanol 2/1 (v/v) spiked with epicoprostanol as the internal standard. Lipids were partitioned in chloroform after the addition of saline and saponified by methanolic potassium hydroxide (0.5 N, 60 °C, 15 min). The fatty acids released were methylated with BF3-methanol (12%, 60 °C, 15 min) to not interfere with the chromatography of sterols. The sterols were re-extracted in hexane and silylated, as described previously. […] Sterols were identified by the fragmentogram in the scanning mode and quantified by selective monitoring of the specific ions after normalization with the internal standard epicoprostanol and calibration with weighed standards.
Supplementary Fig. 2. DD A induce d th e accum ulation of cholestero l precursors in m elanom a cells. a Quantification of sterol accum ulation in cells after 48 h tr eatm ent with or without 2.5 µM DDA. […]
accum ulation. e Representative EM im ages of cells treated for 24 h with solvent vehicle (panels 1- 2) or 2.5 µM DDA (panels 3- 4). […] Cells were treated with solvent vehicle (control) or 2.5 µM DDA for 24 h with or without 1 µ M Baf A1, the n stained with MDC and obser ved by fluorescence m icroscopy. […]

T1 sequence (Q15125 whole entry, stated change not applied): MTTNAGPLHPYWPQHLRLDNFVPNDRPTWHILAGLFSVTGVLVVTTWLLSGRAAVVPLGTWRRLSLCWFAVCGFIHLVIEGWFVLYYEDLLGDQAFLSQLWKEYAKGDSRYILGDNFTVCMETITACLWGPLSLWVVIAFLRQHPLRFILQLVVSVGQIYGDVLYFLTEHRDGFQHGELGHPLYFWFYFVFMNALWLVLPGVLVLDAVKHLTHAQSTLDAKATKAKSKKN

On to `CC(C)CCC[C@@H](C)[C@H]1CC[C@H]2[C@@H]3C[C@@H](NCCc4cnc[nH]4)[C@@]4(O)C[C@@H](O)CC[C@]4(C)[C@H]3CC[C@]12C` [DDA, Dendrogenin A], for which the tumor growth result in the test on SKMEL-28 tumors and in the test with B16F10 tumors was “significantly reduced the growth” each time. Also, the D8D7I inhibition entry in test [1] is listed as “inhibited D8D7I”.

The values are drawn from PMC5712521, “Dendrogenin A drives LXR to trigger lethal autophagy in cancers” (Nature Communications, 2017).
